30 compounds from patent publication US8937078B2, “Quinazolinones as prolyl hydroxylase inhibitors” (Janssen Pharmaceutica NV, priority 2009, dated 2015) can be followed below.

The test system of one assay is Hep-3B cells. The assay is described as follows: Cellular assay: erythropoietin secretion in Hep-3B cells. It is filed as cell-based, human. To be noted: Homo sapiens, Hep3B, 100 μM compound, 24 hours, percent of EPO secretion relative to assay control compound 7-[(4-Chloro-phenyl)-(5-methyl-isoxazol-3-ylamino)-methyl]-quinolin-8-ol, read-out: Cellular % EPO Stimulation. In a few lines:
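Hep-3B cells in DMEM with 10% FBS, treated 24 h after plating with compounds at 100 μM final for a further 24 h. Secreted EPO in supernatant measured by MSD electrochemiluminescence sandwich immunoassay with anti-EPO detection antibody.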

For another assay, the target named is T1, human PHD2 (PHD2181-417) (Homo sapiens, UniProt Q9GZT9).
T1 construct: Smt (SUMO) tag (cleaved yes); made in house; host or cells: E. coli BL21 (pBAD vector)
T1 sequence (Q9GZT9 181-417): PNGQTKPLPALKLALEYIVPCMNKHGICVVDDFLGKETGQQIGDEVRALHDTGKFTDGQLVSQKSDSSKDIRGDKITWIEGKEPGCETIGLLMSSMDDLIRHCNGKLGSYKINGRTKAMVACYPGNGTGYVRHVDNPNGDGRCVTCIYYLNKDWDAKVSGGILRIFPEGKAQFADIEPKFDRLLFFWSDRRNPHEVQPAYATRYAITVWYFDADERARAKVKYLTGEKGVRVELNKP
Description: PHD enzymatic assay ([14C]-succinic acid production). Format: biochemical. Conditions: PHD2181-417, HIF-1α peptide 10 μM, average of results; for IC50: read-out: Enzyme pIC50 (converted). Put shortly:
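Activity measured as [14C]-succinic acid formed from [5-14C]-2-oxoglutarate over 10 minutes, with peptide substrate at 10 μM, in Tris-HCl pH 7.5 buffer containing catalase, DTT and ascorbate. Unreacted oxoglutarate removed by DNP derivatisation; supernatant beta-counted.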

SMILES strings stand for the structures.

For the compound `COc1ccccc1-c1ccc2nc(-n3cc(C(=O)O)cn3)[nH]c(=O)c2c1` [Example 198, 1-[6-(2-Methoxy-phenyl)-4-oxo-3,4-dihydro-quinazolin-2-yl]-1H-pyrazole-4-carboxylic acid], the Emax at 100 µM in the assay with Hep-3B cells turned out to be 178%. For the same compound, the IC50 at human PHD2 (PHD2181-417) was 20 nM.

As to `CC(C)(C)c1ccc(Sc2cc3c(=O)nc(-n4cc(C(=O)O)cn4)[nH]c3cc2Cl)cc1` [Example 24, 1-[6-(4-tert-Butyl-phenylsulfanyl)-7-chloro-4-oxo-1,4-dihydro-quinazolin-2-yl]-1H-pyrazole-4-carboxylic acid], the Emax at 100 µM in the assay with Hep-3B cells was determined as 50%. In addition, the IC50 at human PHD2 (PHD2181-417) was 25.1 nM.

For `O=C(Nc1ccccc1)Nc1ccc2nc(-n3cc(C(=O)O)cn3)[nH]c(=O)c2c1` [Example 168, 1-[4-Oxo-6-(3-phenyl-ureido)-3,4-dihydro-quinazolin-2-yl]-1H-pyrazole-4-carboxylic acid], the Emax at 100 µM with Hep-3B cells was found to be 4%. On human PHD2 (PHD2181-417), the IC50 is 31.6 nM.

Regarding `O=C(O)c1cnn(-c2nc3ccc(-c4cccc5c4OCCO5)cc3c(=O)[nH]2)c1` [Example 204, 1-[6-(2,3-Dihydro-benzo[1,4]dioxin-5-yl)-4-oxo-3,4-dihydro-quinazolin-2-yl]-1H-pyrazole-4-carboxylic acid], the Emax at 100 µM with Hep-3B cells was 111%. Further, the IC50 at human PHD2 (PHD2181-417) was 15.8 nM.

With `CCc1ccccc1-c1ccc2nc(-n3cc(C(=O)O)cn3)[nH]c(=O)c2c1` [Example 203, 1-[6-(2-Ethyl-phenyl)-4-oxo-3,4-dihydro-quinazolin-2-yl]-1H-pyrazole-4-carboxylic acid], the Emax at 100 µM with Hep-3B cells amounted to 77%. Moreover, at human PHD2 (PHD2181-417), the IC50 is 31.6 nM.

In the case of `Cc1ccc(Oc2cc3c(=O)[nH]c(-n4cc(C(=O)O)cn4)nc3cc2F)cc1C` [Example 88, 1-[6-(3,4-dimethyl-phenoxy)-7-fluoro-4-oxo-3,4-dihydro-quinazolin-2-yl]-1H-pyrazole-4-carboxylic acid], the Emax at 100 µM in the assay on Hep-3B cells was 95%. Moreover, the IC50 at human PHD2 (PHD2181-417) is 15.8 nM.

On to `O=C(O)c1cnn(-c2nc3ccc(-c4cccc(F)c4)cc3c(=O)[nH]2)c1` [Example 196, 1-[6-(3-Fluoro-phenyl)-4-oxo-3,4-dihydro-quinazolin-2-yl]-1H-pyrazole-4-carboxylic acid], for which the Emax at 100 µM in the assay with Hep-3B cells amounted to 92%. Besides, the IC50 on human PHD2 (PHD2181-417) was 39.8 nM.

Regarding `O=C(O)c1cnn(-c2nc3c(OC(F)(F)F)cccc3c(=O)[nH]2)c1` [Example 117, 1-(4-Oxo-8-trifluoromethoxy-3,4-dihydro-quinazolin-2-yl)-1H-pyrazole-4-carboxylic acid], the Emax at 100 µM in the assay with Hep-3B cells worked out at 12%. The IC50 at human PHD2 (PHD2181-417) was 794 nM.

`CCCc1ccc2nc(-n3cc(C(=O)O)cn3)[nH]c(=O)c2c1` [Example 129, 1-(4-Oxo-6-propyl-3,4-dihydro-quinazolin-2-yl)-1H-pyrazole-4-carboxylic acid]: the Emax at 100 µM with Hep-3B cells was found to be 94%. Also, the IC50 on human PHD2 (PHD2181-417) is 31.6 nM.

With `O=C(O)c1cnn(-c2nc3ccc4c(c3c(=O)[nH]2)CCCC4)c1` [Example 144, 1-(1-Oxo-1,2,7,8,9,10-hexahydro-benzo[f]quinazolin-3-yl)-1H-pyrazole-4-carboxylic acid], the Emax at 100 µM in the assay with Hep-3B cells came out at 42%. In addition, the IC50 on human PHD2 (PHD2181-417) is 39.8 nM.

As for `O=C(O)c1cnn(-c2nc3cc(OC(F)(F)F)ccc3c(=O)[nH]2)c1` [Example 148, 1-(4-Oxo-7-trifluoromethoxy-3,4-dihydro-quinazolin-2-yl)-1H-pyrazole-4-carboxylic acid], the Emax at 100 µM in the assay with Hep-3B cells turned out to be 10%. In addition, the IC50 at human PHD2 (PHD2181-417) is 126 nM.

On to `COc1ccc(Oc2ccc3nc(-n4cc(C(=O)O)cn4)[nH]c(=O)c3c2)cc1` [Example 41, 1-[6-(4-Methoxy-phenoxy)-4-oxo-3,4-dihydro-quinazolin-2-yl]-1H-pyrazole-4-carboxylic acid], for which the Emax at 100 µM with Hep-3B cells was 112%. For the same compound, the IC50 on human PHD2 (PHD2181-417) was 20 nM.

For the compound `Cc1ccccc1-c1ccc2nc(-n3cc(C(=O)O)cn3)[nH]c(=O)c2c1` [Example 69, 1-(4-Oxo-6-o-tolyl-3,4-dihydro-quinazolin-2-yl)-1H-pyrazole-4-carboxylic acid], the Emax at 100 µM in the assay with Hep-3B cells is 57%. Also, the “Enzyme pIC50” value on human PHD2 (PHD2181-417) is on record as 8.1.

With `O=C(O)c1cnn(-c2nc3ccc(OC(F)(F)F)cc3c(=O)[nH]2)c1` [Example 15, 1-(4-Oxo-6-trifluoromethoxy-3,4-dihydro-quinazolin-2-yl)-1H-pyrazole-4-carboxylic acid], the Emax at 100 µM with Hep-3B cells was found to be 19%. Also, the IC50 at human PHD2 (PHD2181-417) is 15.8 nM.

On to `Cc1cccc2c(=O)[nH]c(-n3cc(C(=O)O)cn3)nc12` [Example 9, 1-(8-Methyl-4-oxo-3,4-dihydro-quinazolin-2-yl)-1H-pyrazole-4-carboxylic acid], for which the Emax at 100 µM in the assay with Hep-3B cells amounted to 49%. The IC50 on human PHD2 (PHD2181-417) was 79.4 nM.

Turning to `O=C(O)c1cnn(-c2nc3ccc(Oc4ccccc4)cc3c(=O)[nH]2)c1` [Example 20, 1-(4-Oxo-6-phenoxy-3,4-dihydro-quinazolin-2-yl)-1H-pyrazole-4-carboxylic acid], in the assay with Hep-3B cells, the Emax at 100 µM is 104%. Moreover, the IC50 at human PHD2 (PHD2181-417) was 25.1 nM.

For `O=C(O)c1cnn(-c2nc3ccc(Oc4ccc(Cl)cc4Cl)cc3c(=O)[nH]2)c1` [Example 39, 1-[6-(2,4-Dichloro-phenoxy)-4-oxo-3,4-dihydro-quinazolin-2-yl]-1H-pyrazole-4-carboxylic acid], in the assay with Hep-3B cells, the Emax at 100 µM was found to be 77%. Also, at human PHD2 (PHD2181-417), the IC50 was 25.1 nM.

As for `O=C(O)c1cnn(-c2nc3cc(F)c(Oc4cccc(C(F)(F)F)c4)cc3c(=O)[nH]2)c1` [Example 95, 1-[7-fluoro-4-oxo-6-(3-trifluoromethyl-phenoxy)-3,4-dihydro-quinazolin-2-yl]-1H-pyrazole-4-carboxylic acid], the Emax at 100 µM in the assay with Hep-3B cells is 61%. In addition, the IC50 on human PHD2 (PHD2181-417) was 20 nM.

As for `O=C(O)c1cnn(-c2nc3ccc(Oc4ccccc4F)cc3c(=O)[nH]2)c1` [Example 33, 1-[6-(2-Fluoro-phenoxy)-4-oxo-3,4-dihydro-quinazolin-2-yl]-1H-pyrazole-4-carboxylic acid], the Emax at 100 µM in the assay on Hep-3B cells is 56%. Besides, at human PHD2 (PHD2181-417), the IC50 is 31.6 nM.

In the case of `Cc1ccccc1CNc1ccc2nc(-n3cc(C(=O)O)cn3)[nH]c(=O)c2c1` [Example 173, 1-[6-(2-Methyl-benzylamino)-4-oxo-3,4-dihydro-quinazolin-2-yl]-1H-pyrazole-4-carboxylic acid], the Emax at 100 µM in the assay with Hep-3B cells was found to be 101%. Also, the IC50 at human PHD2 (PHD2181-417) was 20 nM.

`CCC(C)c1ccc2nc(-n3cc(C(=O)O)cn3)[nH]c(=O)c2c1` (stereo not drawn) [Example 120, 1-(6-sec-Butyl-4-oxo-3,4-dihydro-quinazolin-2-yl)-1H-pyrazole-4-carboxylic acid]: the Emax at 100 µM with Hep-3B cells was determined as 68%. On human PHD2 (PHD2181-417), the IC50 is 20 nM.

As to `O=C(O)c1cnn(-c2nc3ccc(-c4ccc5cc[nH]c5c4)cc3c(=O)[nH]2)c1` [Example 108, 1-[6-(1H-Indol-6-yl)-4-oxo-3,4-dihydro-quinazolin-2-yl]-1H-pyrazole-4-carboxylic acid], the Emax at 100 µM with Hep-3B cells worked out at 85%. On human PHD2 (PHD2181-417), the IC50 was 25.1 nM.

In the case of `O=C(O)c1cnn(-c2nc3c(C(F)(F)F)cccc3c(=O)[nH]2)c1` [Example 16, 1-(4-Oxo-8-trifluoromethyl-3,4-dihydro-quinazolin-2-yl)-1H-pyrazole-4-carboxylic acid], the Emax at 100 µM in the assay on Hep-3B cells turned out to be 16%. Further, at human PHD2 (PHD2181-417), the IC50 is 251 nM.

With `CC(C)c1ccc2c(=O)[nH]c(-n3cc(C(=O)O)cn3)nc2c1` [Example 146, 1-(7-Isopropyl-4-oxo-3,4-dihydro-quinazolin-2-yl)-1H-pyrazole-4-carboxylic acid], the Emax at 100 µM in the assay on Hep-3B cells came out at 16%. Besides, at human PHD2 (PHD2181-417), the IC50 is 126 nM.

As to `COc1cc2nc(-n3cc(C(=O)O)cn3)[nH]c(=O)c2c(OC)c1OC` [Example 18, 1-(5,6,7-Trimethoxy-4-oxo-3,4-dihydro-quinazolin-2-yl)-1H-pyrazole-4-carboxylic acid], the Emax at 100 µM in the assay on Hep-3B cells turned out to be 42%. On human PHD2 (PHD2181-417), the IC50 was 316 nM.

Regarding `O=C(O)c1cnn(-c2nc3c(F)cc(Br)cc3c(=O)[nH]2)c1` [Example 130, 1-(6-Bromo-8-fluoro-4-oxo-3,4-dihydro-quinazolin-2-yl)-1H-pyrazole-4-carboxylic acid], the Emax at 100 µM in the assay with Hep-3B cells was found to be 12%. On human PHD2 (PHD2181-417), the IC50 was 79.4 nM.

With `CC(C)(C)c1ccc(S(=O)(=O)c2cc3c(=O)[nH]c(-n4cc(C(=O)O)cn4)nc3cc2Cl)cc1` [Example 72, 1-[6-(4-tert-Butyl-benzenesulfonyl)-7-chloro-4-oxo-3,4-dihydro-quinazolin-2-yl]-1H-pyrazole-4-carboxylic acid], the Emax at 100 µM with Hep-3B cells came out at 22%. Besides, at human PHD2 (PHD2181-417), the IC50 is 50.1 nM.

As for `O=C(O)c1cnn(-c2nc3cc(Cl)c(Cl)cc3c(=O)[nH]2)c1` [Example 3, 1-(6,7-Dichloro-4-oxo-3,4-dihydro-quinazolin-2-yl)-1H-pyrazole-4-carboxylic acid], the Emax at 100 µM in the assay with Hep-3B cells was found to be 37%. Besides, the IC50 on human PHD2 (PHD2181-417) was 25.1 nM.

As for `Cc1ccc(CNc2ccc3nc(-n4cc(C(=O)O)cn4)[nH]c(=O)c3c2)cc1` [Example 183, 1-[6-(4-methyl-benzylamino)-4-oxo-3,4-dihydro-quinazolin-2-yl]-1H-pyrazole-4-carboxylic acid], the Emax at 100 µM in the assay with Hep-3B cells is 89%. Besides, at human PHD2 (PHD2181-417), the IC50 was 15.8 nM.

For the compound `CN(C)c1cccc2nc(-n3cc(C(=O)O)cn3)[nH]c(=O)c12` [Example 151, 1-(5-Dimethylamino-4-oxo-3,4-dihydro-quinazolin-2-yl)-1H-pyrazole-4-carboxylic acid], the Emax at 100 µM in the assay with Hep-3B cells is 11%. Further, the IC50 on human PHD2 (PHD2181-417) is 631 nM.
